# Data taken from patent publication US9284329B2, “Thienopyridone derivatives useful as activators of AMPK” (POXEL, priority 2012, dated 2016).
# Tested on: ob/ob and db/db mice
# Assay: not given
# Conditions: 8 day administration; cited from earlier work
row,SMILES,reduces blood glucose
1,NC(=O)c1ncn([C@@H]2O[C@H](CO)[C@@H](O)[C@H]2O)c1N [AICAR],35%

# Tested on: Ob/ob mice
# Assay: In vivo control of glycemia in ob/ob mice
# Conditions: oral BID during 8 days, 150 mg/kg, compared to an animal group control
# Method: The following biological test allows the determination of the efficacy of compounds of formula (I) onto the control of glycemia on a pharmaceutical animal model.
# All experiments on animals were carried out in accordance with the European animal care guidelines (ETS123).
# Ob/ob mice from CERJ (53940 Le Genest Saint Isle, France) were treated orally with compounds of formula (1) BID during 8 days. At that time, a blood sample was collected and glucose concentration was determined using ABX diagnostic kit.
# Results are given as a percentage of glycemia variation compared to an animal group control.
row,SMILES,% glycemia variation
1,"O=c1[nH]c2sc(Cl)c(-c3ccc4c(c3[O-])CCCC4)c2c([O-])c1-c1ccccc1.[Na+].[Na+] [Compound 19, disodium 2-chloro-3-(5-oxidotetralin-6-yl)-6-oxo-5-phenyl-7H-thieno[2,3-b]pyridin-4-olate]",−41%
2,"O=c1[nH]c2sc(Cl)c(-c3ccc4c(c3O)CCCC4)c2c(O)c1-c1ccccc1 [Compound 12, 2-chloro-4-hydroxy-3-(5-hydroxytetralin-6-yl)-5-phenyl-7H-thieno[2,3-b]pyridin-6-one]",−27%

# Tested on: AMPK
# Assay: AMPK enzymatic activity (Delfia technology, AMARA peptide substrate)
# Type: biochemical
# Conditions: AMP at 200 μM as reference
# Method: The following biological test allows the determination of the efficacy of compounds of formula (I) onto AMPK protein.
# AMPK enzyme activities were assayed by using a Delfia technology. AMPK enzyme activities were carried out in microtiter plates in the presence of a synthetic peptide substrate (AMARAASAAALARRR, the “AMARA” peptide) and activators in serial dilutions. Reactions were initiated by the addition of AMPK. Enzyme activity was assayed by using an anti-phosphoserine antibody to measure the quantity of phosphate incorporated into the AMARAA.
# N°: Number of the molecule
# Activity: Ratio between the % of control (basal activity) of compound of formula (1) at 30 μM and the % of control (basal activity) of AMP (natural substrate) at 200 μM.
row,SMILES,Activity: Ratio between the % of control (basal activity) of compound at 30 μM and the % of control (basal activity) of AMP at 200 μM
1,"Cc1ccc(-c2c(O)c3c(-c4ccc5c(c4O)CCCC5)c(Cl)sc3[nH]c2=O)cc1 [Compound 21, 2-chloro-4-hydroxy-3-(5-hydroxytetralin-6-yl)-5-(p-tolyl)-7H-thieno[2,3-b]pyridin-6-one]",C (C>130%)
2,"O=c1[nH]c2sc(Cl)c(-c3ccc4c(c3)CCC4)c2c(O)c1-c1ccccc1 [Compound 3, 2-chloro-4-hydroxy-3-indan-5-yl-5-phenyl-7H-thieno[2,3-b]pyridin-6-one]",B (110%<B<130%)
3,"O=c1[nH]c2sc(Cl)c(-c3ccc4c(c3[O-])CCCC4)c2c([O-])c1-c1ccccc1.[Na+].[Na+] [Compound 19, disodium 2-chloro-3-(5-oxidotetralin-6-yl)-6-oxo-5-phenyl-7H-thieno[2,3-b]pyridin-4-olate]",C (C>130%)
4,"O=c1[nH]c2sc(Cl)c(-c3ccc4c(c3O)CCC4)c2c(O)c1-c1ccccc1 [Compound 2, 2-chloro-4-hydroxy-3-(4-hydroxyindan-5-yl)-5-phenyl-7H-thieno[2,3-b]pyridin-6-one]",B (110%<B<130%)
5,"O=c1[nH]c2sc(Cl)c(-c3ccc4c(c3O)CCC4)c2c(O)c1-c1ccc(F)cc1 [Compound 8, 2-chloro-5-(4-fluorophenyl)-4-hydroxy-3-(4-hydroxyindan-5-yl)-7H-thieno[2,3-b]pyridin-6-one]",C (C>130%)
6,"O=c1[nH]c2sc(Cl)c(-c3ccc4c(c3)CCC4)c2c(O)c1-c1cccnc1 [Compound 10, 2-chloro-4-hydroxy-3-indan-5-yl-5-(3-pyridyl)-7H-thieno[2,3-b]pyridin-6-one]",A (A<110%)
7,"O=c1[nH]c2sc(Cl)c(-c3ccc4c(c3O)CCC4)c2c(O)c1-c1ccccc1F [Compound 11, 2-chloro-5-(2-fluorophenyl)-4-hydroxy-3-(4-hydroxyindan-5-yl)-7H-thieno[2,3-b]pyridin-6-one]",B (110%<B<130%)
8,"COc1cccc(-c2c(O)c3c(-c4ccc5c(c4)CCC5)c(Cl)sc3[nH]c2=O)c1 [Compound 5, 2-chloro-4-hydroxy-3-indan-5-yl-5-(3-methoxyphenyl)-7H-thieno[2,3-b]pyridin-6-one]",C (C>130%)
9,"O=c1[nH]c2sc(Cl)c(-c3ccc4c(c3O)CCCC4)c2c(O)c1-c1ccc(F)cc1 [Compound 18, 2-chloro-5-(4-fluorophenyl)-4-hydroxy-3-(5-hydroxytetralin-6-yl)-7H-thieno[2,3-b]pyridin-6-one]",B (110%<B<130%)
10,"N#Cc1cccc(-c2c(O)c3c(-c4ccc5c(c4)CCC5)c(Cl)sc3[nH]c2=O)c1 [Compound 6, 3-(2-chloro-4-hydroxy-3-indan-5-yl-6-oxo-7H-thieno[2,3-b]pyridin-5-yl)benzonitrile]",C (C>130%)
11,"O=c1[nH]c2sc(Cl)c(-c3ccc4c(c3)CCC4)c2c(O)c1-c1ccc(F)cc1 [Compound 4, 2-chloro-5-(4-fluorophenyl)-4-hydroxy-3-indan-5-yl-7H-thieno[2,3-b]pyridin-6-one]",B (110%<B<130%)
12,"O=c1[nH]c2sc(Cl)c(-c3ccc4c(c3O)CCCC4)c2c(O)c1-c1ccccc1 [Compound 12, 2-chloro-4-hydroxy-3-(5-hydroxytetralin-6-yl)-5-phenyl-7H-thieno[2,3-b]pyridin-6-one]",C (C>130%)
13,"O=c1[nH]c2sc(Cl)c(-c3ccc4c(c3)CCCC4)c2c(O)c1-c1cccnc1 [Compound 13, 2-chloro-4-hydroxy-5-(3-pyridyl)-3-tetralin-6-yl-7H-thieno[2,3-b]pyridin-6-one]",C (C>130%)
14,"N#Cc1cccc(-c2c(O)c3c(-c4ccc5c(c4)CCCC5)c(Cl)sc3[nH]c2=O)c1 [Compound 15, 3-(2-chloro-4-hydroxy-6-oxo-3-tetralin-6-yl-7H-thieno[2,3-b]pyridin-5-yl)benzonitrile]",B (110%<B<130%)
15,"Cc1cccc(-c2c(O)c3c(-c4ccc5c(c4O)CCCC5)c(Cl)sc3[nH]c2=O)c1 [Compound 20, 2-chloro-4-hydroxy-3-(5-hydroxytetralin-6-yl)-5-(m-tolyl)-7H-thieno[2,3-b]pyridin-6-one]",C (C>130%)
16,"[Na+].[Na+].[Na+].[O-]c1nc2sc(Cl)c(-c3ccc4c(c3[O-])CCCC4)c2c([O-])c1-c1ccccc1 [Compound 16, trisodium 2-chloro-3-(5-oxidotetralin-6-yl)-5-phenyl-thieno[2,3-b]pyridine-4,6-diolate]",B (110%<B<130%)
17,"Cc1cccc(-c2c(O)c3c(-c4ccc5c(c4)CCC5)c(Cl)sc3[nH]c2=O)c1 [Compound 7, 2-chloro-4-hydroxy-3-indan-5-yl-5-(m-tolyl)-7H-thieno[2,3-b]pyridin-6-one]",C (C>130%)
18,"O=c1[nH]c2sc(Cl)c(-c3ccc4c(c3O)CCC4)c2c(O)c1-c1cccc(F)c1 [Compound 9, 2-chloro-5-(3-fluorophenyl)-4-hydroxy-3-(4-hydroxyindan-5-yl)-7H-thieno[2,3-b]pyridin-6-one]",C (C>130%)
19,"COc1ccc(-c2c(O)c3c(-c4ccc5c(c4)CCC5)c(Cl)sc3[nH]c2=O)cc1 [Compound 1, 2-chloro-4-hydroxy-3-indan-5-yl-5-(4-methoxyphenyl)-7H-thieno[2,3-b]pyridin-6-one]",C (C>130%)
20,"O=c1[nH]c2sc(Cl)c(-c3ccc4c(c3)CCCC4)c2c(O)c1-c1ccccc1 [Compound 17, 2-chloro-4-hydroxy-5-phenyl-3-tetralin-6-yl-7H-thieno [2,3-b]pyridin-6-one]",A (A<110%)
